Where two headings read alike, the source gives them in different places.
How the values were obtained:
[1] = tested on: Sarcoma 180 mouse solid tumor; test: Antitumor activity against Sarcoma 180 mouse solid tumor; type: in vivo, mouse (ddY); conditions: Sarcoma-180, iv, 168 h
Description: To a ddY mouse were intraperitoneally transplanted 5×10^6 sarcoma 180 cells. On the seventh day from the transplant, the cells were collected from the ascites, washed once with sterilized physiological saline, and then diluted with sterilized physiological saline to prepare a cell suspension having a concentration of 5×10^7 cells/mL. This suspension was transplanted in an amount of 0.01 mL to a subcutaneous part of the right axilla of each of male ddY mice each weighing 20±1 g.
A test compound was dissolved in physiological saline containing polyoxyethylene sorbitan monolaurate. At 24 hours after the tumor transplant, 0.2 mL of the solution was intravenously administered to the tail of each of a group of five mice.

HeLa S3 cells = test: HeLa S3 Cell Growth Inhibition Test; type: cell-based; conditions: Homo sapiens, 72 hours incubation, Neutral Red
Description: In each well of a 96-well microtiter plate was placed 0.1 mL of HeLa S3 cells having a concentration of 8×10^3 cells/mL and prepared in an MEM culture medium containing 10% fetal bovine serum and 2 mM glutamine. After the cells were incubated overnight at 37° C. in a carbon dioxide incubator, a test compound suitably diluted with a medium was added to the wells in an amount of 0.05 mL for each well. The cells were incubated at 37° C. for 72 hours in a carbon dioxide incubator. After the culture supernatant was removed, 0.1 mL of a culture medium containing 0.02% Neutral Red was added to each well. The cells were then incubated at 37° C. for 1 hour in a carbon dioxide incubator to dye the cells. After the culture supernatant was removed, each residue was rinsed once with physiological saline and the pigment was extracted with 0.001 N hydrochloric acid/30% ethanol. The absorbance at 550 nm of each extract was measured with a microplate reader. The drug concentration required for the 50% inhibition of cell growth, which is referred to as IC50, was calculated by comparing the absorbance for untreated cells with those for cells treated with the drug in known concentrations.

[2] = HeLa S3, 72 h, HeLa S3, read-out: IC50, HeLa S3 cell growth inhibition
[3] = read-out: T/C (tumor volume ratio treated/control)
[4] = HeLa S3, 72 h, read-out: IC50, HeLa S3 cell growth inhibition, HeLa S3
[5] = 8.0 mg/kg i.v. once, 24 hours after transplant, tumor volume on day 7, read-out: T/C (tumor volume ratio treated/control)
[6] = HeLa S3, read-out: IC50, HeLa S3 cell growth inhibition
[7] = 16 mg/kg i.v. once, 24 hours after transplant, tumor volume on day 7, read-out: T/C (tumor volume ratio treated/control)

CC(=O)Oc1cccc(C(=O)OCSC(=O)C(C)(O)C23CC/C(C)=C/C(OC4CCCCO4)C(=O)/C=C/C=C\c4csc(n4)C(C)N(C(=O)C2)[S+]3[O-])c1 (centres unmarked) [Compound 54]
response vs control in vivo at 4 mg/kg ([1]; 4.0 mg/kg i.v. once, 24 hours after transplant, tumor volume on day 7, read-out: T/C (tumor volume ratio treated/control)): 47%
IC50 (HeLa S3 cells; [2]): 0.015 µM

C/C1=C\C(OC2CCCCO2)C(=O)/C=C/C=C\c2csc(n2)C(C)N2C(=O)CC(C(C)(O)C(=O)SCOC(=O)CCNC(=O)[C@@]34O[C@@H](CO)[C@@H](O)[C@@H]3OC(C)(C)O4)(CC1)[S+]2[O-] (some centres unmarked) [Compound 64]
response vs control in vivo at 8 mg/kg [1, 3]: 43%
IC50 (HeLa S3 cells; [4]): 0.035 µM

COCOCc1oc(=O)oc1CSC(=O)C(C)(O)C12CC/C(C)=C/C(OC3CCCCO3)C(=O)/C=C/C=C\c3csc(n3)C(C)N(C(=O)C1)[S+]2[O-] (centres unmarked) [Compound 78]
response vs control in vivo at 8 mg/kg [1, 5]: 50%
IC50 (HeLa S3 cells; [2]): 0.0022 µM

C/C1=C\C(O)C(=O)/C=C/C=C\c2csc(n2)C(C)N2C(=O)CC(C(C)(O)C(=O)SCc3oc(=O)oc3COC3C[C@H](O[Si](C)(C)C(C)(C)C)[C@@H](O[Si](C)(C)C(C)(C)C)[C@H](C)O3)(CC1)[S+]2[O-] (some centres unmarked) [Compound 79]
response vs control in vivo at 8 mg/kg [1, 5]: 45%
IC50 (HeLa S3 cells; [6]): 0.79 µM

C/C1=C\C(OC2CCCCO2)C(=O)/C=C/C=C\c2csc(n2)C(C)N2C(=O)CC(C(C)(O)C(=O)SCc3oc(=O)oc3CO)(CC1)[S+]2[O-] (centres unmarked) [Compound 87]
response vs control in vivo at 16 mg/kg [1, 3]: 40%
IC50 (HeLa S3 cells; [4]): 0.033 µM

C/C1=C\C(O)C(=O)/C=C/C=C\c2csc(n2)C(C)N2C(=O)CC(C(C)(O)C(=O)SCc3oc(=O)oc3COC=O)(CC1)[S+]2[O-] (centres unmarked) [Compound 88]
response vs control in vivo at 8 mg/kg [1, 3]: 49%
IC50 (HeLa S3 cells; [4]): 0.32 µM

C/C1=C\C(OC2CCCCO2)C(=O)/C=C/C=C\c2csc(n2)C(C)N2C(=O)CC(C(C)(O)C(=O)SCc3oc(=O)oc3COC(=O)c3cnc4ccccc4n3)(CC1)[S+]2[O-] (centres unmarked) [Compound 94]
response vs control in vivo at 8 mg/kg [1, 3]: 43%
IC50 (HeLa S3 cells; [4]): 0.033 µM

CC(=O)NCC(=O)OCc1oc(=O)oc1CSC(=O)C(C)(O)C12CC/C(C)=C/C(OC3CCCCO3)C(=O)/C=C/C=C\c3csc(n3)C(C)N(C(=O)C1)[S+]2[O-] (centres unmarked) [Compound 98]
response vs control in vivo at 16 mg/kg [1, 7]: 40%
IC50 (HeLa S3 cells; [2]): 0.07 µM

COCCOCC(=O)OCc1oc(=O)oc1CSC(=O)C(C)(O)C12CC/C(C)=C/C(O)C(=O)/C=C/C=C\c3csc(n3)C(C)N(C(=O)C1)[S+]2[O-] (centres unmarked) [Compound 99]
response vs control in vivo at 8 mg/kg [1, 5]: 40%
IC50 (HeLa S3 cells; [2]): 0.087 µM

COCCOCCOCC(=O)OCc1oc(=O)oc1CSC(=O)C(C)(O)C12CC/C(C)=C/C(O)C(=O)/C=C/C=C\c3csc(n3)C(C)N(C(=O)C1)[S+]2[O-] (centres unmarked) [Compound 101]
response vs control in vivo at 16 mg/kg [1, 7]: 27%
IC50 (HeLa S3 cells; [2]): 0.1 µM

COCCOCCOCC(=O)OCc1oc(=O)oc1CSC(=O)C(C)(O)C12CC/C(C)=C/C(OC3CCCCO3)C(=O)/C=C/C=C\c3csc(n3)C(C)N(C(=O)C1)[S+]2[O-] (centres unmarked) [Compound 102]
response vs control in vivo at 16 mg/kg [1, 7]: 46%
IC50 (HeLa S3 cells; [2]): 0.038 µM

C=C(CSC(=O)C(C)(O)C12CC/C(C)=C/C(OC3CCCCO3)C(=O)/C=C/C=C\c3csc(n3)C(C)N(C(=O)C1)[S+]2[O-])C(=O)OC (centres unmarked) [Compound 112]
response vs control in vivo at 8 mg/kg [1, 5]: 24%
IC50 (HeLa S3 cells; [2]): 0.064 µM

COC1(OC2/C=C(\C)CCC3(C(C)(O)C(=O)SCC4=C(C)OC(C)(C)OC4=O)CC(=O)N(C(C)c4nc(cs4)/C=C\C=C\C2=O)[S+]3[O-])CCOCC1 (centres unmarked) [Compound 122]
response vs control in vivo at 16 mg/kg [1, 7]: 37%
IC50 (HeLa S3 cells; [2]): 1.8 µM

CC1=C(CSC(=O)C(C)(O)C23CC/C(C)=C/C(OC4CCCCO4)C(=O)/C=C/C=C\c4csc(n4)C(C)N(C(=O)C2)[S+]3[O-])C(=O)OC(C)(C)O1 (centres unmarked) [Compound 123]
response vs control in vivo at 16 mg/kg [1, 7]: 14%
IC50 (HeLa S3 cells; [2]): 0.6 µM

CC1=C(CSC(=O)C(C)(O)C23CC/C(C)=C/C(OC4CCCCO4)C(=O)/C=C/C=C\c4csc(n4)C(C)N(C(=O)C2)[S+]3[O-])C(=O)OC2(CCOCC2)O1 (centres unmarked) [Compound 125]
response vs control in vivo at 16 mg/kg [1, 7]: 43%
IC50 (HeLa S3 cells; [2]): 0.047 µM

CCOC(=O)N1CCC2(CC1)OC(=O)C(CSC(=O)C(C)(O)C13CC/C(C)=C/C(OC4CCCCO4)C(=O)/C=C/C=C\c4csc(n4)C(C)N(C(=O)C1)[S+]3[O-])=C(C)O2 (centres unmarked) [Compound 127]
response vs control in vivo at 16 mg/kg [1, 7]: 29%
IC50 (HeLa S3 cells; [6]): 0.033 µM
